Data as given in PMC11306024, “Novel metabolite madeirone and neomarinone extracted from Streptomyces aculeoletus as marine antibiofilm and antifouling agents” (Frontiers in Chemistry, 2024).
Read-outs that look alike come from different tables or passages of the source.

Experiments:
[1] = tested on: P. inhibens; assay: Antibacterial activity (growth inhibition, OD600); assay type: cell-based, Phaeobacter inhibens DSM 17395; conditions: 0.16 µg/mL, 48 h, positive control
Method: (§1) To assess antimicrofouling activity, we selected five marine bacterial species as models: Marinobacter hydrocarbonoclasticus DSM 8798 (ATCC 49840), C. marina DSM 4741, Phaeobacter inhibens DSM 17,395, Pseusooceanicola batsensis DSM 15,984, and Micrococcus luteus DSM 20030 (ATCC 4698) ([Michael et al., 2016]). These strains, sourced from DSMZ (Leibniz Institute DSMZ—German Collection of Microorganisms and Cell Cultures), were cultured in liquid marine broth (Carl Roth GmbH, Karlsruhe, Germany) with agitation at 180 rpm or on agar-supplemented marine broth. Incubation temperatures were set at 28°C for M. hydrocarbonoclasticus and Cobetia marina, 30°C for P. inhibens and P. batsensis, while M. luteus was maintained at 37°C in Brain Heart Infusion broth (BHI, Becton Dickinson, GmbH, Heidelberg, Germany) under similar agitation conditions.
(§2) The antibacterial efficacy of compounds (1) and (2) was assessed in 96-well polystyrene flat-bottom microplates (Nunclon Delta Surface, Thermo Scientific, Roskilde, Denmark) following established procedures ([Bauermeister et al., 2019]). In the initial screening, bacterial overnight cultures were diluted to an optical density (OD600nm) of 0.2 and incubated statically at appropriate temperatures. The cultures were treated with the following final concentrations per well: 31.25, 15.60, 7.81, 3.91, 1.95, and 0.98 μg/mL (2-fold serial dilutions) of the compounds, solubilized in DMSO, or left untreated. After 24 h (M. hydrocarbonoclasticus, C. marina) or 48 h (P. batsensis, P. inhibens, M. luteus) incubation, optical density at 600 nm (OD600) was measured using a Molecular Devices Spectra Max 190. Growth inhibition percentages were calculated relatively to untreated bacterial species, using DMSO as a negative control. CuSO4 (0.16 μg/mL), a recognized antifouling agent, was used as positive control. All assays were conducted in triplicate, and the results represent the mean and standard error of the mean (SEM). Statistical analysis was carried out using GraphPad Prism 8.0.2 (San Diego, CA, United States), employing one-way ANOVA followed by Dunnett’s multiple comparisons test against the negative control.

[2] = tested on: P. batsensis; assay: Antibacterial activity (growth inhibition, OD600); assay type: cell-based, Pseudo-oceanicola batsensis DSM 15984; conditions: 0.16 µg/mL, 48 h, positive control
Method: as §1, §2

[3] = tested on: M. hydrocarbonoclasticus; assay: Antibacterial activity (growth inhibition, OD600); assay type: cell-based, Marinobacter hydrocarbonoclasticus DSM 8798; conditions: 0.16 µg/mL, 24 h, positive control
Method: as §1, §2

[4] = tested on: C. marina; assay: Antibacterial activity (growth inhibition, OD600); assay type: cell-based, Cobetia marina DSM 4741; conditions: 0.16 µg/mL, 24 h, positive control
Method: as §1, §2

[5] = tested on: M. luteus; assay: Antibacterial activity (growth inhibition, OD600); assay type: cell-based, Micrococcus luteus DSM 20030; conditions: 0.16 µg/mL, 48 h, positive control
Method: as §1, §2

[6] = tested on: P. inhibens; assay: Antibiofilm activity (inhibition of biofilm formation); assay type: cell-based, Phaeobacter inhibens DSM 17395; conditions: 0.16 µg/mL, 48 h, positive control
Method: as §1
(§3) The antibiofilm potential of compounds (1) and (2) against the five marine bacterial species was investigated in 96-well polystyrene flat-bottom microplates (Nunclon Delta Surface, Thermo Scientific, Roskilde, Denmark), as described previously ([Bauermeister et al., 2019]; [Pereira et al., 2020]). In the initial screening, bacterial overnight cultures were diluted to an OD600 of 0.2 and incubated statically at appropriate temperatures. The cultures were tested at 31.25, 15.60, 7.81, 3.91, 1.95, 0.98 μg/mL concentrations (2-fold serial dilutions) of compounds (1) and (2), solubilized in DMSO, or left untreated. After 24 h (M. hydrocarbonoclasticus, C. marina) or 48 h (P. batsensis, P. inhibens, M. luteus) incubation, OD600 was measured. The planktonic cells and media were discarded, and the wells were washed twice with deionized water. Biofilms were fixed, stained, and quantified by measuring the OD600 after solubilization with acetic acid. Biofilm inhibition percentages were calculated relative to untreated bacterial species, using DMSO as a negative control and CuSO4 (0.16 μg/mL), as a positive control. All assays were performed in triplicate, and the results represent the mean and standard error of the mean (SEM). Statistical analysis was conducted using GraphPad Prism 8.0.2, employing one-way ANOVA followed by Dunnett’s multiple comparisons test against the negative control.

[7] = tested on: P. batsensis; assay: as above; assay type: cell-based, Pseudo-oceanicola batsensis DSM 15984; conditions: 0.16 µg/mL, 48 h, positive control
Method: as §1, §3

[8] = tested on: M. hydrocarbonoclasticus; assay: as above; assay type: cell-based, Marinobacter hydrocarbonoclasticus DSM 8798; conditions: 0.16 µg/mL, 24 h, positive control
Method: as §1, §3

[9] = tested on: C. marina; assay: as above; assay type: cell-based, Cobetia marina DSM 4741; conditions: 0.16 µg/mL, 24 h, positive control
Method: as §1, §3

[10] = tested on: M. luteus; assay: as above; assay type: cell-based, Micrococcus luteus DSM 20030; conditions: 0.16 µg/mL, 48 h, positive control
Method: as §1, §3

[11] = tested on: Aliivibrio fischeri; assay: Inhibition of bioluminescence (ISO 11348-3 micro adaptation); assay type: cell-based; conditions: 100 µg/mL
Method: The in vivo evaluation of compounds (1) and (2) for acute toxicity was performed towards marine bacterium Aliivibrio fischeri, and planktonic crustacean Daphnia magna. The chronic ecotoxicity tests were evaluated using algae Pseudokirchneriella subcapitata and Phaeodactylum tricornutum.
The inhibition of bioluminescence of the marine bacterium A. fischeri, were studied following a micro adaptation of the standard procedure ISO 11348-3 (“Water Quality-Determination of the inhibitory effect of water samples on the light emission of Vibrio fischeri - Luminescent bacteria test–using freeze-dried bacteria method”). Briefly, frozen lyophilized bacterial cells (Abraxis, Warminster, PA, United States) were reconstituted in Reconstitution Solution, supplied by the manufacturer of the Abratox kit (Abraxis). Madeirone (1) and neomarinone (2) were dissolved in DMSO and tested at the concentrations of 100, 50, 25, 12.5, 6.25, 3.13, and 1.56 μg/mL. The emitted luminescence was measured using a luminometer at time 0 min and at different exposure times (5, 15 and 30 min) and the percentage of inhibition of bioluminescence was determined. Each experiment was performed in duplicate and the results of three independent experiments with <10% SD are presented. Phenol was used as a positive control.

[12] = tested on: Oral rat/rabit; design: method as in Tišler and Zagorc-končan, 2003; conditions: ref Tišler and Zagorc-končan, 2003; cited from earlier work
[13] = tested on: Fish Orcorhynchus mykiss; conditions: ref Tišler and Zagorc-končan, 2003; cited from earlier work
[14] = tested on: Daphnia magna; conditions: ref Tišler and Zagorc-končan, 2003; cited from earlier work
[15] = tested on: Alga Scenedesmus quadricauda; conditions: cited from earlier work
[16] = tested on: Daphnia magna; conditions: cited from earlier work
[17] = tested on: Oral rat; conditions: from reported data; ref Tišler and Zagorc-končan, 2003; cited from earlier work
[18] = tested on: M. edulis; design: method as in Davies et al., 1997; conditions: against M. edulis; ref Davies et al., 1997; cited from earlier work

Compound: O=S(=O)([O-])[O-].[Cu+2] [CuSO4, reference compound]
- Growth inhibition (%) P. inhibens [1]: 66.2 ± 5.6 %
- Growth inhibition (%) P. batsensis [2]: 44.8 ± 6.3 %
- Growth inhibition (%) M. hydrocarbonoclasticus [3]: 35.8 ± 0.8 %
- Growth inhibition (%) C. marina [4]: No inhibition and N.I.
- Growth inhibition (%) M. luteus [5]: No inhibition and N.I.
- Biofilm inhibition (%) P. inhibens [6]: 12.9 ± 6.4%
- Biofilm inhibition (%) P. batsensis [7]: 41.4 ± 0.9%
- Biofilm inhibition (%) M. hydrocarbonoclasticus [8]: no observable inhibition and N.I.
- Biofilm inhibition (%) C. marina [9]: no observable inhibition and N.I.
- Biofilm inhibition (%) M. luteus [10]: no observable inhibition and N.I.

Compound: Oc1ccccc1 [Phenol, reference compound]
- Inhibition (%) A. fischeri (bioluminescence) [11]: 19.8%

Compound: [Cu] [compound 8, copper]
- Oral rat/rabit LD50 [12]: 140 mg/kg
- Fish Orcorhynchus mykiss 96 h LC50 [13]: 0.48 µg/mL
- Daphnia magna 48 h LC50 [14]: 0.030 µg/mL
- Alga Scenedesmus quadricauda 21 days NOEC [15]: 0.18 mg/L
- Daphnia magna 21 days NOEC ([16]; in vivo): 0.015 mg/L
- ATE category [17]: 3 (category 3, 50 < ATE ≤300 mg/kg, labeled as (“Toxic if swallowed”))

Compound: [As] [compound 9, arsenic]
- Oral rat/rabit LD50 [12]: 12 mg/kg
- Fish Orcorhynchus mykiss 96 h LC50 [13]: 15.3 µg/mL
- Daphnia magna 48 h LC50 [14]: 2.5 µg/mL
- Alga Scenedesmus quadricauda 21 days NOEC ([15]; footnote d as printed, ref Tišler and Zagorc-končan, 2003): 34.5 mg/L
- Daphnia magna 21 days NOEC ([16]; ref Tišler and Zagorc-končan, 2003): 1.85 mg/L
- ATE category [17]: 2 (category 2, 5 < ATE ≤50 mg/kg, also classified as “Fatal if swallowed”)

Compound: ivermectin
- EC50 [18]: 0.4 µg/mL
